In US9238821B2, “Metabolic engineering for plant disease resistance” (The Samuel Roberts Noble Foundation, Inc., priority 2009, dated 2016):
Where “and” joins values, the source holds several entries; their conditions need not be identical. Identical values can stand only once. Entries after “also recorded” stand apart in the source; their conditions may differ.

Test system: P. omnivora
Test: Fungal inhibition assay against P. omnivora on PDA medium
Format: cell-based, Phymatotrichopsis omnivora
Details: for Fungal growth score (arbitrary scale 0 to 5): 120 h, 0 = no fungal growth (best inhibition), 5 = best fungal growth (no inhibition), two replicate columns; for in vitro growth inhibitory activity against P. omnivora (in words): PDA medium, 0.1 mM and 0.5 mM

Compound | Fungal growth score (arbitrary scale 0 to 5) (compound 0.1 mM in PDA medium) | Fungal growth score (arbitrary scale 0 to 5) (compound 0.5 mM in PDA medium) | in vitro growth inhibitory activity against P. omnivora (in words) | in vitro growth inhibitory activity against P. omnivora (in words) (listed as 7, 4′-dihydroxyflavone)
COc1ccc(-c2coc3cc(O)ccc3c2=O)cc1 [formononetin, reference compound] | 4 | 4 | not active | –
O=c1cc(-c2ccc(O)cc2)oc2cc(O)ccc12 [7,4′-dihydroxyflavone] | 3 | 0 | strongly inhibited; also recorded: inhibited; also recorded: substantial in vitro growth inhibitory activity; also recorded: inhibit growth | substantial in vitro growth inhibitory activity
O=c1cc(-c2ccc(O)cc2)oc2cc(O)cc(O)c12 [apigenin] | 5 | 5 | not in vitro active | –
O=c1cc(-c2ccc(O)cc2)oc2cc(O)c(O)cc12 [6,7,4′-trihydoxyflavone] | – | – | not active | –
medicarpin | 2 and 1 | 1 and 0 | strong inhibition; also recorded: inhibited; also recorded: substantial in vitro growth inhibitory activity; also recorded: inhibit growth | –
O=C1C[C@@H](c2ccc(O)cc2)Oc2cc(O)ccc21 [liquiritigenin] | 5 | 5 | no inhibition activity | –
O=C1C[C@@H](c2ccc(O)cc2)Oc2cc(O)cc(O)c21 [naringenin] | 4 and 5 | 3 and 5 | no inhibition activity | –
Oc1ccccc1O [catechol, reference compound] | 2 | 0 | – | –
O=C(/C=C/c1ccc(O)cc1)c1ccc(O)cc1O [isoliquiritigenin] | 4 | 4 | – | –
